System: HCT116 cells
Test: HCT116 Matrigel invasion assay
Format: cell-based
Details: after 24 h; 9 at multiple concentrations; 32 at 50 nM and 500 nM
Method: Figure 5 HCT116 cells were treated with 9 or 32 at the indicated concentrations and plated on Matrigel®‐coated filters. The upper chamber contained serum‐free medium, while the lower chamber contained 10 % fetal bovine serum. After 24 h, the number of invading cells was measured optically. (A) This figure is one representative example of four biological replicates, each with similar outcomes. Error bars are SEM. Technical replicates: DMSO and 9 at 5 nM (n=3); 9 at 50 and 500 nM and 32 at all concentrations (n=6). Statistical significance was calculated using an unpaired two‐tailed t‐test. n.s=p≥0.05; **=p<0.01; ***=p<0.001. (B) Representative images (Scale bar, […]) of stained invaded cells outside of the inserts 24 h hours after treatment with 9, 32, or DMSO solvent control at the indicated concentrations. Phase contrast images were taken with EVOS FL Cell imagine system FL Auto microscope (Bio‐Rad).
Invasion assay: The HCT116 colorectal adenocarcinoma cell line (ATCC® CCL‐247™) was maintained in Dulbecco's Modified Eagle Medium (DMEM) with […] glucose, L‐glutamine w/o sodium pyruvate, supplemented with 10 % FBS and 1 % penicillin/streptomycin. […] The samples were transferred to a new 96 well plate and read at 560 nm on a Synergy 2 Multi‐Detection Microplate Reader (Bio‐Tek Instruments, Inc., Winooski, VT).

Structure (SMILES): CC[C@H](NC(=O)[C@H]1CN(c2ccc(C(=N)N)cc2)C(=O)O1)c1cccc2ccccc12 [Compound 32, (5R)‐3‐(4‐carbamimidoylphenyl)‐N‐((S)‐1‐(naphthalen‐1‐yl)propyl)‐2‐oxooxazolidine‐5‐carboxamide]
- invasion of HCT116 cells: significant reduction in invasion

Source: publication PMC7004151, “Synthesis and Structure‐Activity Relationships of N‐(4‐Benzamidino)‐Oxazolidinones: Potent and Selective Inhibitors of Kallikrein‐Related Peptidase 6” (Chemmedchem, 2019)
